# From ChEMBL document CHEMBL1132851, “Synthesis of the repeating unit of the O-specific polysaccharide of Shigella sonnei and quantitation of its serologic activity” (Bioorg Med Chem Lett, 2000)
# System: Shigella sonnei
# Assay: Compound was evaluated for the inhibition of hemolysis of Shigella sonneili polysaccharide-sensitized erythrocyte using a hyper-immune rabbit serum
# Assay type: functional, organism-based
row,SMILES,IC50 [mM]
1,CO[C@@H]1OC(C(=O)O)[C@H](O)C(O)[C@@H]1NC(C)=O (stereo partly drawn),6.9
2,CO[C@@H]1OC(C)[C@H](N)C(O)[C@@H]1NC(C)=O (stereo partly drawn),9.8
3,CO[C@@H]1OC(C(=O)O)[C@H](O[C@@H]2OC(C)[C@H](N)C(O)[C@@H]2NC(C)=O)C(O)[C@@H]1NC(C)=O (stereo partly drawn),3.9
